The values below come from patent US12691118B2, “Allosteric agonists and positive allosteric modulators of Glucagon-like peptide 1 receptor” (University of the Sciences, priority 2019, dated 2026).

“Also recorded” adds a separate entry of the source. Ends that are not written are not given here.

The target in data set [1] is T1, Vasoactive Intestinal Polypeptide Receptor 1 (VIPR1) (Homo sapiens, UniProt P32241).
T1 construct: host or cells: HEK293 cells stably expressing CRE/CREB luciferase reporter
T1 sequence (P32241 31-457): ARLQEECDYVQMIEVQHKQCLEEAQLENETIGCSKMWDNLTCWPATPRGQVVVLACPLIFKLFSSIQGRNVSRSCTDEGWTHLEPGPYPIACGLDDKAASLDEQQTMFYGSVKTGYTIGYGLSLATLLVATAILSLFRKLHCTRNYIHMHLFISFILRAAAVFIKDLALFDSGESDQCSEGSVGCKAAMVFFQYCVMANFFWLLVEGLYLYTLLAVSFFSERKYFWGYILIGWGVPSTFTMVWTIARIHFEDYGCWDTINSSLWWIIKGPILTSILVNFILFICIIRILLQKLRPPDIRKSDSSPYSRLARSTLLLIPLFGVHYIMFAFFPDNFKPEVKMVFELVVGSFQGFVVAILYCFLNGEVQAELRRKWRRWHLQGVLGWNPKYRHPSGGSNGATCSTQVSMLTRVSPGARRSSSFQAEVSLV
In words: Non-specific effect on VIPR1, luciferase assay in HEK293 cells overexpressing VIPR1. It is filed as cell-based. The conditions noted are these: Ib 23.5 μM; VIPR peptide agonist 0.014 nM-145 nM. As for the experimental part: (§1) Compounds dissolved in 100% DMSO were diluted to indicated concentration in RPMI 1640 (0.5% DMSO included for all cell culture). After 4 hours of treatment, cells were harvested by cold luciferase cell culture lysis buffer and kept on shaker for 10 min at 4° C. Luciferase activity was measured using luciferin substrate and luminescence was read by Wallac 1420 multiplate reader. Luciferase activity of HEK293 reporting cells cultured using 0.5% DMSO and full RPMI medium was used as a vehicle control. Protein concentration of each well was determined by Bradford assay.
HEK293 cells stably expressing CRE/CREB Reporter (luciferase) were cultured in RPMI 1640 supplemented with 8% (v/v) fetal bovine serum, 2% (v/v) penicillin/streptomycin, and 100 μg/ml of Hygromycin B. Cells were maintained at 37° C. with 5% CO2. Cells were seeded into 6-well cell culture plates one day before transfection. After overnight incubation, cells were transiently transfected with 3.4 μg of VIPR1, using Lipofectamine 2000. After 4 hours of transfection, medium was replaced by RPMI supplemented with 5% (v/v) fetal bovine serum. After 24 hours of incubation, cells were trypsinized and seeded into 96 well cell culture plates (5.5×10^4 cells per well) and maintained at 37° C. in 5% CO2 for 24 hours. After 24 hours of incubation, the cells were starved with RPMI with 0.5% sera. […]

The test system of another data set is INS-1 832/13 cells. The experiment in a line: Glucose stimulated insulin production in INS-1 832/13 cells. The conditions noted are these: 16.7 mM glucose. It is filed as cell-based, rat. As for the experimental part:
INS-1 832/13 cells were cultured in RPMI 1640 supplemented with 2 mM L-glutamine, 1 mM sodium pyruvate, 10% FBS, 10 mM HEPES, 100 units/ml penicillin, 100 μg/ml streptomycin, and 50 μM β-mercaptoethanol. Cells were maintained in an incubator at 37° C. with 5% CO2. To determine the effect of GLP-1R agonist Ia and PAM Ib on insulin production, INS-1 cells were seeded onto 24 well plates. After 48 hours of incubation, cells were washed twice with 200 μl of Krebs-Ringer Bicarbonate (KRB) buffer and starved for 2 hours in fresh KRB supplemented with 0.1% serum. […] After 20 minutes, the supernatant was collected, centrifuged at 1000 rpm for 5 min at 4° C., and aliquoted and stored at −20° C. These samples were used to determine insulin concentration using insulin detection kit ELISA following the manual.

A further data set addresses T2, human GLP-1R (Homo sapiens, UniProt P43220).
T2 construct: Flag (N); host or cells: HEK293 cells stably expressing CRE/CREB luciferase reporter (BPS Bioscience #60515)
In words: CRE luciferase reporter assay in HEK293 cells transiently expressing human GLP-1R. It is filed as cell-based. The conditions noted are these: for GLP-1R activity stimulated by GLP-1 in combination with compound vs GLP-1 alone: GLP-1 0.014 nM-145 nM. The method, then:
HEK293 cells stably expressing CRE/CREB Reporter (luciferase) were cultured in RPMI medium supplemented with 8% (v/v) fetal bovine serum, 2% (v/v) penicillin/streptomycin, and 100 μg/ml of Hygromycin B. Cells were maintained in an incubator at 37° C. with 5% CO2. Cells were seeded into 6-well cell culture plates one day before transfection. After overnight incubation, one well of cell was transiently transfected with 3.4 μg of human GLP-1R or empty vector, respectively, using lipofectamine 2000. After 4 hours of transfection, transfection medium was replaced by RPMI medium supplemented with 5% (v/v) fetal bovine serum and 2% (v/v) penicillin/streptomycin. After 24 hours of incubation, cells were trypsinized and seeded into 96 well cell culture plates (5.5× 10^4 cells per well) and maintained at 37° C. in 5% CO2 incubator for 24 hours. The cells were starved using RPMI with 0.5% sera. After 24 hours of starvation, the transfected cells were treated with compounds as indicated.
as §1
The concentration-dependent dose response curve was generated using Graph Pad Prism 6.0 for Mac (GraphPad Software Inc., San Diego, CA). The curves were fitted based on sigmoidal dose response with the bottom parameter being kept 0. The EC50 value was calculated from Prism. The statistical difference between different groups was analyzed by 2-way ANOVA module in Prism.

Data set [2] is described as follows: Compound stability (statement). It is filed as physicochemical.

T2 sequence (P43220 24-463): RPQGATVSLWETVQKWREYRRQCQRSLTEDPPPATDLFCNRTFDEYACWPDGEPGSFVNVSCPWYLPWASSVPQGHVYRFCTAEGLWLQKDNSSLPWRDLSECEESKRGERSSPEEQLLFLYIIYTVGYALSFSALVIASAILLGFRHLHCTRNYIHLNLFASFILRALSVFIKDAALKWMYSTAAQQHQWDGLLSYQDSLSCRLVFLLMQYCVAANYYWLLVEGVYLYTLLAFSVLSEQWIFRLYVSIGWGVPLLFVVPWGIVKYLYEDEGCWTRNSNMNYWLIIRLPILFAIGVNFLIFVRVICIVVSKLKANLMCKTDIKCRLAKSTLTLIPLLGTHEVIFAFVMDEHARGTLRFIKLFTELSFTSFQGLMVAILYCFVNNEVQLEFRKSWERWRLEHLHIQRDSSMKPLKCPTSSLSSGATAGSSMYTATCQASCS

As for `CCOC(=O)c1c(N)sc2c1CCCC2C` (centres unmarked) [Compound Ib, ethyl 2-amino-7-methyl-4,5,6,7-tetrahydrobenzo[b]thiophene-3-carboxylate], the “non-specific activity on VIPR1 (VIPR1 activity with VIPR agonist in combination with Ib vs agonist alone)” value in data set [1] is listed as “did not induce non-specific activity; also recorded: no potential non-specific activity on VIPR1”. Also, the “insulin secretion, Ib in combination with GLP-1 vs GLP-1 alone” value with INS-1 832/13 cells (Ib 11.75 μM + GLP-1 0.18 μM) is “more than 2.5 fold”. In the data set on INS-1 832/13 cells (Ib 11.75 μM alone), the “amount of insulin produced by Ib compared with vehicle control” value is “no significant difference”. Moreover, the “GLP-1R activity stimulated by GLP-1 in combination with compound vs GLP-1 alone” value at human GLP-1R (Ib 23.5 μM) is recorded as “significantly increased”.

Consider `CC1CCCc2c1sc1nc(S)n(N)c(=O)c21` (centres unmarked) [Compound Ic, 3-amino-2-mercapto-8-methyl-5,6,7,8-tetrahydrobenzo[4,5]thieno[2,3-d]pyrimidin-4(3H)-one], for which the “stability (statement)” value in data set [2] is recorded as “unstable”. For the same compound, the “GLP-1R activity stimulated by GLP-1 in combination with compound vs GLP-1 alone” value at human GLP-1R (Ic 71 μM) was “significantly increased”. Also, the “potency as PAM (statement)” value on human GLP-1R (compared with Ib) is “less potent”.

Turning to “GLP-1: GLP-1R peptide agonist (Sigma #9416), endogenous ligand of GLP-1R (HAEGTFTSDVSSYLEGQAAKEFIAWLVKGR; ends and bridges not checked; UniProt P01275 98-127, looked up) [reference compound]”, the “insulin production compared to vehicle control” value in the data set with INS-1 832/13 cells (GLP-1 0.18 μM, both time points) was “more than two-fold”.
